Experiment [1] addresses T1, Ephrin type-A receptor 8 (Homo sapiens) (UniProt P29322).
T1 sequence (whole entry): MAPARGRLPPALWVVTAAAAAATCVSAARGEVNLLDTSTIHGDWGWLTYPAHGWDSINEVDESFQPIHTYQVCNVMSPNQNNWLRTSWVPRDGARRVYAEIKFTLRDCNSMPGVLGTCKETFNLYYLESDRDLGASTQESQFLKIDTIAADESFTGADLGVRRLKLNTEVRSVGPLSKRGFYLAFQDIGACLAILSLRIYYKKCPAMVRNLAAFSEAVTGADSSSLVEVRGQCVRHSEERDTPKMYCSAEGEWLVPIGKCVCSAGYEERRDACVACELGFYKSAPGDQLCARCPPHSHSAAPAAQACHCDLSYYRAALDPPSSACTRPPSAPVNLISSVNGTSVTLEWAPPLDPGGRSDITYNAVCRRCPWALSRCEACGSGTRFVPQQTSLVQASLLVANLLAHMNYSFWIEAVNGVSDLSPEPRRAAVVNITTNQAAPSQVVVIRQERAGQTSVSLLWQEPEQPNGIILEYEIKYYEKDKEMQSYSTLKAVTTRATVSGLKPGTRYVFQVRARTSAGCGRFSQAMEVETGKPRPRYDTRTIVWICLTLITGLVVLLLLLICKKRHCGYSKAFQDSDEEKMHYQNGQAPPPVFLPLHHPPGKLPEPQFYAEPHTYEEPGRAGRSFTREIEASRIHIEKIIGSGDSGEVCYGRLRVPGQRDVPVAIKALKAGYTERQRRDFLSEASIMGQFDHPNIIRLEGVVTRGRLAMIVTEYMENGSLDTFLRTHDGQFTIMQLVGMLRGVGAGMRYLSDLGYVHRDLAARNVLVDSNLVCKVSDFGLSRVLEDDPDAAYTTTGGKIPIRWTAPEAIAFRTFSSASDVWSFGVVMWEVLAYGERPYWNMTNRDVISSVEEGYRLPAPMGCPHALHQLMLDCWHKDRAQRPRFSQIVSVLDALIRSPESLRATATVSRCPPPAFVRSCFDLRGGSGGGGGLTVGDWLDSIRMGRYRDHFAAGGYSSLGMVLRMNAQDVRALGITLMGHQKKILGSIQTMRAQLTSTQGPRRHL
Nature of the experiment: Selectivity interaction (KinomeScan (DiscoverX)) EUB0000655a EPHA8. To be noted: at 10 µM.

In another experiment the target is SRSF protein kinase 1 (Homo sapiens, UniProt Q96SB4). Briefly: Selectivity interaction (KinomeScan (DiscoverX)) EUB0000655a SRPK1. Particulars: at 10 µM.
Chain of SRSF protein kinase 1 (Q96SB4 whole entry): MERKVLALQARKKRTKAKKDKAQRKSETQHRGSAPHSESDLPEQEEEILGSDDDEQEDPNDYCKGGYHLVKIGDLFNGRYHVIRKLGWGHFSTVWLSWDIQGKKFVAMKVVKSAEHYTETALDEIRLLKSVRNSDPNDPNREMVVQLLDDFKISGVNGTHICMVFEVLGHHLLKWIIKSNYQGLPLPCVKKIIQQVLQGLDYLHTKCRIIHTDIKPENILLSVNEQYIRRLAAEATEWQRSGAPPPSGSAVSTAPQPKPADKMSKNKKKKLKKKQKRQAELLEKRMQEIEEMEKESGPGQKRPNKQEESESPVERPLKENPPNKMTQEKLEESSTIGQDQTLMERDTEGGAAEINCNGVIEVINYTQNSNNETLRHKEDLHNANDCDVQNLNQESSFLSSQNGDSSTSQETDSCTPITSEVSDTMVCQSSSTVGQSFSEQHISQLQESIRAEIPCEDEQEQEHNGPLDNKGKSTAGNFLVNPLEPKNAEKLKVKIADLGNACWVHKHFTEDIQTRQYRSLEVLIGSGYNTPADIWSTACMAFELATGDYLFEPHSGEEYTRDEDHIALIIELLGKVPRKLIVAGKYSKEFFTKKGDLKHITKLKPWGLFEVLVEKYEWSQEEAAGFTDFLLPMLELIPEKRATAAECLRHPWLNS
Experiment [2] concerns the target T2, Serine/threonine-protein kinase 36 (Homo sapiens) (UniProt Q9NRP7).
T2 sequence (whole entry): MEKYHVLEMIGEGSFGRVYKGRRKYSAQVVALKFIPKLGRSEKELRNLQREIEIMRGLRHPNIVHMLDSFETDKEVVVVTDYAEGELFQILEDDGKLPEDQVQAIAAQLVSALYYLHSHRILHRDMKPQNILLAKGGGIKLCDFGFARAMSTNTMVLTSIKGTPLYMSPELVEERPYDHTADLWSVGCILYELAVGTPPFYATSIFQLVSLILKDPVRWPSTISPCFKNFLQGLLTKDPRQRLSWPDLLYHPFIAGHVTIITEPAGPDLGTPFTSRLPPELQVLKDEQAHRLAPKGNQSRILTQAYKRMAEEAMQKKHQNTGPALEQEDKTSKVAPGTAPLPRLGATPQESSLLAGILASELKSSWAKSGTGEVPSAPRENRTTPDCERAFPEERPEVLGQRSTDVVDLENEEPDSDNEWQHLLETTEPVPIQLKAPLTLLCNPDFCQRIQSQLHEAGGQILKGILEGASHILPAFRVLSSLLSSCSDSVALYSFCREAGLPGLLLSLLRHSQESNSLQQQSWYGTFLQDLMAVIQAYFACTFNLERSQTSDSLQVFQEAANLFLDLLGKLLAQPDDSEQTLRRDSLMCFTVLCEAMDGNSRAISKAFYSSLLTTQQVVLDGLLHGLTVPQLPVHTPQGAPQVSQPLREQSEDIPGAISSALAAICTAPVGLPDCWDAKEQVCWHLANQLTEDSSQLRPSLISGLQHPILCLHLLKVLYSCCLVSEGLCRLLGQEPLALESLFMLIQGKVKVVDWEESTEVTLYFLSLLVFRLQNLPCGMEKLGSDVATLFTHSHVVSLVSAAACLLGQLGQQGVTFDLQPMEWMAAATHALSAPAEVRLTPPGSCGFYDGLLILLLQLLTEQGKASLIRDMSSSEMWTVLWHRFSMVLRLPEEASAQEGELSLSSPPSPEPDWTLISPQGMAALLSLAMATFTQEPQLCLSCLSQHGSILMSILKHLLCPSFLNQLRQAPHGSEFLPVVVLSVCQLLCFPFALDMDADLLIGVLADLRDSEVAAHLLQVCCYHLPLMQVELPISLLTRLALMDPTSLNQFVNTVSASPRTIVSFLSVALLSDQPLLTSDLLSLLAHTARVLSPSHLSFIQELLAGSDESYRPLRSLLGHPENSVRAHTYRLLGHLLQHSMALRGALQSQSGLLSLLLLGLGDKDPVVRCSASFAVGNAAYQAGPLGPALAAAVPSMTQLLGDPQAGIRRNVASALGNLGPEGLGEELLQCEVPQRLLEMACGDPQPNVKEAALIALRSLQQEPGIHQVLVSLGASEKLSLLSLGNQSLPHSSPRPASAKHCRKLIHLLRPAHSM
Briefly: Selectivity interaction (KinomeScan (DiscoverX)) EUB0001079a STK36. To be noted: at 1 µM.

For experiment [3], the target named is Protein-tyrosine kinase 6 (Homo sapiens, UniProt Q13882). Nature of the experiment: Selectivity interaction (KinaseProfiler screening (Millipore)) EUB0000601a PTK6. Particulars: at 3 µM.
Chain of Protein-tyrosine kinase 6 (Q13882 whole entry, looked up): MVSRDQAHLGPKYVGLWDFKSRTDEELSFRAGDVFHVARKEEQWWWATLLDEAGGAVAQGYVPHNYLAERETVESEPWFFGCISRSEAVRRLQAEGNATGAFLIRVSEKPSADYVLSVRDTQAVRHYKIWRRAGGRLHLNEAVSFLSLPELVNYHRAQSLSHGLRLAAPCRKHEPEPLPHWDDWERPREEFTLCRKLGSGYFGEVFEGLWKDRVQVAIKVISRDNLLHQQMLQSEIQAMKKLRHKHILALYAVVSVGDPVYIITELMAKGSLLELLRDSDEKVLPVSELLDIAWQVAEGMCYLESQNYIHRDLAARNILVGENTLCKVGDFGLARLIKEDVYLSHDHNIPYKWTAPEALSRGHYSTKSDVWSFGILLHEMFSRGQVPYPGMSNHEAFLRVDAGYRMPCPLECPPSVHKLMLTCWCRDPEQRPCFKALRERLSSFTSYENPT
The target in experiment [4] is TGF-beta receptor type-2 (Homo sapiens) (UniProt P37173). Briefly: Selectivity interaction (KinomeScan (DiscoverX)) EUB0001619a TGFBR2. Particulars: at 1 µM.
Chain of TGF-beta receptor type-2 (Homo sapiens) (P37173 whole entry): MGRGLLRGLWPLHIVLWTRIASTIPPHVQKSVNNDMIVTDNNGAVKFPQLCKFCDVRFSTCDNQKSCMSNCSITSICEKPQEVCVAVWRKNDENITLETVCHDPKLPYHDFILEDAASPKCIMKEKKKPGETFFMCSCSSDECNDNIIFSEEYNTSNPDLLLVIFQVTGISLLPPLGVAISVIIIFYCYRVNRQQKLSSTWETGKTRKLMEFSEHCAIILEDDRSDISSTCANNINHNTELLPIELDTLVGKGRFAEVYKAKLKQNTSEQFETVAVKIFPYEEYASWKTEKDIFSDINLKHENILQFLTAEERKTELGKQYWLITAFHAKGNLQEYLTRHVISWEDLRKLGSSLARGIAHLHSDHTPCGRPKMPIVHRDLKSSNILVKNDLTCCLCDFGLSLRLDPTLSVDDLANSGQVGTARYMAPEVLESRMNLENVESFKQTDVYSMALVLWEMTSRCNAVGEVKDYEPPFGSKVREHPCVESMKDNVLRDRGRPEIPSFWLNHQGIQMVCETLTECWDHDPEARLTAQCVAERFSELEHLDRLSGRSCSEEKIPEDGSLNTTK
The target in experiment [5] is Mitogen-activated protein kinase kinase kinase kinase 5 (Homo sapiens) (UniProt Q9Y4K4). Briefly: Selectivity interaction (KinomeScan (DiscoverX)) EUB0001049a MAP4K5. Particulars: at 1 µM.
Chain of Mitogen-activated protein kinase kinase kinase kinase 5 (Homo sapiens) (Q9Y4K4 whole entry, looked up, canonical isoform): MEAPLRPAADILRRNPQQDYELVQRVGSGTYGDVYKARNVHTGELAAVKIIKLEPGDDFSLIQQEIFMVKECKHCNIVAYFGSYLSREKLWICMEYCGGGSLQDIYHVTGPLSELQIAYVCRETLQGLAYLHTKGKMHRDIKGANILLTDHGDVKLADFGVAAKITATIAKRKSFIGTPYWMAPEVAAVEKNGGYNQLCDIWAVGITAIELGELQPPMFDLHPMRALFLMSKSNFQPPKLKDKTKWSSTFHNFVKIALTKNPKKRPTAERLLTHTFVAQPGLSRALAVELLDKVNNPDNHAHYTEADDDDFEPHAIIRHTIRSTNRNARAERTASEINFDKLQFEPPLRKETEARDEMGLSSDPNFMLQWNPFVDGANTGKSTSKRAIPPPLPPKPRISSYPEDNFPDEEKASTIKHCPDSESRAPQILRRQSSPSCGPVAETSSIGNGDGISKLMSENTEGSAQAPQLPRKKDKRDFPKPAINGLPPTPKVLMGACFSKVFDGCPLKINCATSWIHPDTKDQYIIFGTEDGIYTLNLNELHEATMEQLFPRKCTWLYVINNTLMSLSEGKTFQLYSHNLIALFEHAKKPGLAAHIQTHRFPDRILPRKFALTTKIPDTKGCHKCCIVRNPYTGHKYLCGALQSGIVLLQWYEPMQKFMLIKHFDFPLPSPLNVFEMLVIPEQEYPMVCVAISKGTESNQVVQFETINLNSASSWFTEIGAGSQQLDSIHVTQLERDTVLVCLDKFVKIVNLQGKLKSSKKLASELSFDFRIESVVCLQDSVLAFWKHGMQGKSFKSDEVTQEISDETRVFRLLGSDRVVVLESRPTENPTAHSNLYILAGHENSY
The target of experiment [6] is Casein kinase I isoform gamma-1 (Homo sapiens) (UniProt Q9HCP0). Nature of the experiment: Selectivity interaction (KinomeScan (DiscoverX)) EUB0000618a CSNK1G1. Particulars: at 10 µM.
Chain of Casein kinase I isoform gamma-1 (Homo sapiens) (Q9HCP0 whole entry, looked up, canonical isoform): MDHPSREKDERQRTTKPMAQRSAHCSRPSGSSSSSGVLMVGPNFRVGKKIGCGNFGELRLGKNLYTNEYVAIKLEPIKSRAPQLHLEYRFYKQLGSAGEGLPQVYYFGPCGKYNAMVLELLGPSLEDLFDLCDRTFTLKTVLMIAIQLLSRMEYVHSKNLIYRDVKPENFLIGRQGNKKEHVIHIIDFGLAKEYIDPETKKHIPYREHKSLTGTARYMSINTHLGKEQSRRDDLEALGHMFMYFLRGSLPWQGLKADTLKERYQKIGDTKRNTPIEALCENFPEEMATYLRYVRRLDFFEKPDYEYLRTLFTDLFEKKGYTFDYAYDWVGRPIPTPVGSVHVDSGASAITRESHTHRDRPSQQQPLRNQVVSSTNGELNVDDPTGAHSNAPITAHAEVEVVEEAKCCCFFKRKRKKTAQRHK

`CN(C)CCOc1ccc(-c2nc(-c3ccncc3)c(-c3ccc4c(c3)CC/C4=N\O)[nH]2)cc1`: the % of control worked out at 100% in experiment [1] and 86% on SRSF protein kinase 1.

As for `Nc1cnc(N2CCc3cc(S(=O)(=O)Nc4c(F)cc(Cl)cc4F)cc(N4CCCC4=O)c32)nc1` [TP-020n], the % of control in experiment [2] stood at 98%. In turn, `CCc1cc(Nc2nccc(-c3c(-c4ccc(OC)c(C(=O)Nc5c(F)cccc5F)c4)nc4ccccn34)n2)c(OC)cc1N1CCC(N2CCN(S(C)(=O)=O)CC2)CC1` gave a % of inhibition in experiment [3] of 65%. `N#Cc1cccc(-c2c[nH]c3ncnc(N4CCOCC4)c23)c1` returned a % of control in experiment [4] of 100%. Regarding `COc1cc(Nc2nc(C)cc(-c3cnn4nc(OC)ccc34)n2)cc(C(F)(F)F)c1`, the % of control in experiment [5] is 94%. In turn, `O[C@H]1CC[C@H](Nc2ncc3nc(Nc4c(F)cc(F)cc4F)n([C@H]4CCOC4)c3n2)CC1` displayed a % of control in experiment [6] of 100%.
